Reference: ChEMBL document CHEMBL5512645, “A novel antimicrobial peptide with broad-spectrum and exceptional stability derived from the natural peptide Brevicidine” (Eur J Med Chem, 2024)
Values after ≈ are worked out from the molar mass of the structure shown. Active and inactive are the calls of the source. The rule behind the calls is not given here. Bridge positions count the residues as written; N and C are the ends. Square brackets hold non-standard residues; d marks the D form. Peptide text beside a SMILES is read from it. * marks the point of attachment. ξ: configuration not given here. Hexanoyl(4ξ-Me) = CCC(C)CCC(=O)*; dOrn = NCCC[C@@H](N)C(=O)O; Orn = NCCC[C@H](N)C(=O)O

Tests used:
Staphylococcus aureus [1] = assay: Antibacterial activity against Staphylococcus aureus ATCC 25923 pretreated with 5% mouse serum followed by compound addition and measured after 1 hr by broth microdilution method (reference value: 8 microM); type: functional
Staphylococcus aureus [2] = assay: Antibacterial activity against Staphylococcus aureus ATCC 25923 pretreated with Mgcl2 followed by compound addition and measured after 2 hrs by broth microdilution method (reference value: 8 microM); type: functional
Staphylococcus aureus [3] = assay: Antibacterial activity against Staphylococcus aureus ATCC 25923 pretreated with FeCl3 followed by compound addition and measured after 2 hrs by broth microdilution method (reference value: 8 microM); type: functional
Staphylococcus aureus [4] = assay: Induction of morphological changes in Staphylococcus aureus ATCC 25923 assessed as adhesion at 2 times MIC measured after 0.5 hrs by SEM based analysis; type: functional, organism-based
[5] = Toxicity in male BALB/c mouse assessed as survival rate at 29.2 mg/kg, ip measured after 7 days relative to control; type: organism-based; conditions: in vivo, time 7 day
[6] = Toxicity in male BALB/c mouse assessed as survival rate at 42.6 mg/kg, ip measured after 6 days relative to control; type: organism-based; conditions: in vivo, time 6 day
[7] = Toxicity in male BALB/c mouse assessed as inflammatory cell infiltration in liver at 46.88 mg/kg, ip administered as single dose by H and E staining based analysis; type: organism-based; conditions: in vivo
[8] = Toxicity in male BALB/c mouse assessed as hemorrhage in kidney at 46.88 mg/kg, ip administered as single dose by H and E staining based analysis; type: organism-based; conditions: in vivo
[9] = Toxicity in male BALB/c mouse assessed as edema in kidney at 46.88 mg/kg, ip administered as single dose by H and E staining based analysis; type: organism-based; conditions: in vivo
Staphylococcus aureus [10] = assay: In vivo antibacterial activity against Staphylococcus aureus ATCC 25923 infected in BALB/c mouse model assessed as reduction in bacterial count in liver at 10 mg/kg, ip preadministered with compound for 1 hr followed by bacterial infection and measured after 6 hrs […]; type: functional, organism-based; conditions: time 7.0 hrs
Staphylococcus aureus [11] = assay: Antibacterial activity against Staphylococcus aureus ATCC 25923 assessed as fold increase in MIC pretreated with KCl followed by compound addition and measured after 2 hrs by broth microdilution method; type: functional
Staphylococcus aureus [12] = assay: Antibacterial activity against Staphylococcus aureus ATCC 25923 assessed as fold increase in MIC pretreated with MgCl2 followed by compound addition and measured after 2 hrs by broth microdilution method; type: functional
Staphylococcus aureus [13] = assay: Antibacterial activity against Staphylococcus aureus ATCC 25923 pretreated with 10% mouse serum followed by compound addition and measured after 1 hr by broth microdilution method (reference value: 64 microM); type: functional
Staphylococcus aureus [14] = assay: Antibacterial activity against Staphylococcus aureus ATCC 25923 pretreated with 2.5% mouse serum followed by compound addition and measured after 6 hrs by broth microdilution method (reference value: 64 microM); type: functional
Staphylococcus aureus [15] = assay: Antibacterial activity against Staphylococcus aureus ATCC 25923 pretreated with 5% mouse serum followed by compound addition and measured after 6 hrs by broth microdilution method (reference value: 64 microM); type: functional
Staphylococcus aureus [16] = assay: Antibacterial activity against Staphylococcus aureus ATCC 25923 pretreated with Kcl followed by compound addition and measured after 2 hrs by broth microdilution method (reference value: 64 microM); type: functional
Staphylococcus aureus [17] = assay: Antibacterial activity against Staphylococcus aureus ATCC 25923 pretreated with Mgcl2 followed by compound addition and measured after 2 hrs by broth microdilution method (reference value: 64 microM); type: functional
Staphylococcus aureus [18] = assay: Antibacterial activity against Staphylococcus aureus ATCC 25923 pretreated with Fecl3 followed by compound addition and measured after 2 hrs by broth microdilution method (reference value: 64 microM); type: functional
Staphylococcus aureus [19] = assay: Bactericidal activity against Staphylococcus aureus ATCC 25923 assessed as assessed as eradication of bacterial cells at 1/2 to 4 times MIC measured after 0.5 hr by time killing analysis; type: functional, organism-based
Staphylococcus aureus [20] = assay: Induction of morphological changes in Staphylococcus aureus ATCC 25923 assessed as leakage of cellular content at 2 times MIC measured after 0.5 hrs by SEM based analysis; type: functional, organism-based
Pseudomonas aeruginosa = assay: Antibacterial activity against Pseudomonas aeruginosa ATCC 27853 assessed as fold increase in MIC pretreated with 2.5 to 20% mouse serum followed by compound addition and measured after 1 hr by broth microdilution method; type: functional
Staphylococcus aureus [21] = assay: Antibacterial activity against Staphylococcus aureus ATCC 25923 assessed as fold increase in MIC pretreated with 2.5 to 20% mouse serum followed by compound addition and measured after 6 hr by broth microdilution method; type: functional
Staphylococcus aureus [22] = assay: Antibacterial activity against Staphylococcus aureus ATCC 25923 assessed as fold increase in MIC pretreated with 2.5 to 20% mouse serum followed by compound addition and measured after 1 hr by broth microdilution method; type: functional
Staphylococcus aureus [23] = assay: Antibacterial activity against Staphylococcus aureus ATCC 25923 pretreated with 10% mouse serum followed by compound addition and measured after 1 hr by broth microdilution method (reference value: 16 microM); type: functional, organism-based
Staphylococcus aureus [24] = assay: Antibacterial activity against Staphylococcus aureus ATCC 25923 pretreated with 2.5% mouse serum followed by compound addition and measured after 6 hrs by broth microdilution method (reference value: 16 microM); type: functional, organism-based
Staphylococcus aureus [25] = assay: Antibacterial activity against Staphylococcus aureus ATCC 25923 pretreated with 10% mouse serum followed by compound addition and measured after 6 hrs by broth microdilution method (reference value: 16 microM); type: functional, organism-based
Staphylococcus aureus [26] = assay: Antibacterial activity against Staphylococcus aureus ATCC 25923 pretreated with Na-cl followed by compound addition and measured after 2 hrs by broth microdilution method (reference value: 16 microM); type: functional, organism-based
Staphylococcus aureus [27] = assay: Antibacterial activity against Staphylococcus aureus ATCC 25923 pretreated with Kcl followed by compound addition and measured after 2 hrs by broth microdilution method (reference value: 16 microM); type: functional, organism-based
Staphylococcus aureus [28] = assay: Antibacterial activity against Staphylococcus aureus ATCC 25923 pretreated with Mgcl2 followed by compound addition and measured after 2 hrs by broth microdilution method (reference value: 16 microM); type: functional, organism-based
Cell membrane [29] = assay: Induction of outer membrane permeabilization in Pseudomonas aeruginosa ATCC 27853 assessed increase in fluorescence intensity at 1/2 to 4 times MIC by fluorescence based NPN uptake assay; type: cell membranes; conditions: time <= 12.0 min, TDE = time-dependent effect
Cell membrane [30] = assay: Induction of cytoplasmic membrane depolarization in Staphylococcus aureus ATCC 25923 assessed as increase in fluorescence intensity at 4 times MIC measured upto 12 min by DiSC3-5 dye based fluorescence method; type: cell membranes

In the case of `CCCCCCCCCC(=O)N[C@H](CCCN)C(=O)N[C@H](Cc1ccc(O)cc1)C(=O)N[C@H](Cc1c[nH]c2ccccc12)C(=O)N[C@H](CCCN)C(=O)N[C@@H](CCCN)C(=O)NCC(=O)N[C@H](CCCN)C(=O)N[C@@H](Cc1c[nH]c2ccccc12)C(=O)N[C@H](C(=O)N[C@H](C(=O)NCC(=O)N[C@@H](CO)C(=O)O)[C@@H](C)CC)[C@@H](C)O`, the MIC (Staphylococcus aureus [1]) is reported as 16 µM (≈ 25.3 µg/mL), the MIC (Staphylococcus aureus [2]) is reported as 8 µM (≈ 12.6 µg/mL) and the MIC (Staphylococcus aureus [3]) is reported as 8 µM (≈ 12.6 µg/mL). The Activity (Staphylococcus aureus [4]) was “Active”, the survival at 168 h [5] was 100% and the survival at 144 h [6] was 50%. For the same molecule, the Activity [7] was “Toxic”, the Activity [8] was “Toxic” and the Activity [9] was “Toxic”. For the same molecule, the Activity (Staphylococcus aureus [10]) was “Active”, the “fold change (FC)” value (Staphylococcus aureus [11]) was 2 and the “fold change (FC)” value (Staphylococcus aureus [12]) was 2.
`CCC(C)CCC(=O)N[C@H](CC(N)=O)C(=O)N[C@H](Cc1ccc(O)cc1)C(=O)N[C@H](Cc1c[nH]c2ccccc12)C(=O)N[C@H](CCCN)C(=O)N[C@@H](CCCN)C(=O)NCC(=O)N[C@H](CCCN)C(=O)N[C@@H](Cc1c[nH]c2ccccc12)C(=O)N[C@@H]1C(=O)N[C@@H]([C@@H](C)CC)C(=O)NCC(=O)N[C@@H](CO)C(=O)O[C@@H]1C` (stereo partly specified) ({Hexanoyl(4ξ-Me)}-[dN][dY][dW][dOrn][Orn]G[dOrn]WTIGS; ester 9-C) gave an MIC (Staphylococcus aureus [13]) of 64 µM (≈ 97.3 µg/mL), an MIC (Staphylococcus aureus [14]) of 128 µM (≈ 195 µg/mL) and an MIC (Staphylococcus aureus [15]) of 128 µM (≈ 195 µg/mL). The MIC (Staphylococcus aureus [16]) was 64 µM (≈ 97.3 µg/mL), the MIC (Staphylococcus aureus [17]) was 64 µM (≈ 97.3 µg/mL) and the MIC (Staphylococcus aureus [18]) was 64 µM (≈ 97.3 µg/mL). For the same molecule, the Activity (Staphylococcus aureus [19]) was “Active”, the Activity (Staphylococcus aureus [20]) was “Active” and the “fold change (FC)” value (Pseudomonas aeruginosa) was 2. The “fold change (FC)” value (Staphylococcus aureus [21]) was 2 and the “fold change (FC)” value (Staphylococcus aureus [22]) was 2.
In the case of POLYMYXIN B, the MIC (Staphylococcus aureus [23]) is reported as 16 µM, the MIC (Staphylococcus aureus [24]) is reported as 16 µM and the MIC (Staphylococcus aureus [25]) is reported as 16 µM. It also gave an MIC (Staphylococcus aureus [26]) of 16 µM, an MIC (Staphylococcus aureus [27]) of 8 µM and an MIC (Staphylococcus aureus [28]) of 8 µM. For the same molecule, the Activity (Cell membrane [29]) was “Tde” and the Activity (Cell membrane [30]) was “inactive”.
